According to ChEMBL document CHEMBL1201862, “PubChem BioAssay data set” (2004):
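Compound exposure: 48 hours, 5 concentrations, 96-well plates. GI50 = concentration required for 50% inhibition of growth.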 The source made the active and inactive calls. Rule as the data show it: active = GI50 up to about 1.1 µM and inactive = higher.

Experiments:
Experiment in all cases: NCI anticancer screen, dose series, 48 h
786-0 = tested on: 786-0
ACHN = tested on: ACHN
CAKI-1 = tested on: CAKI-1
HCT-116 = tested on: HCT-116
HL-60 = tested on: HL-60
KM12 = tested on: KM12
Malme-3M = tested on: Malme-3M
NCI-H460 = tested on: NCI-H460
SF-268 = tested on: SF-268
SK-MEL-5 = tested on: SK-MEL-5
SW-620 = tested on: SW-620
U-251 = tested on: U-251
UACC-62 = tested on: UACC-62
UO-31 = tested on: UO-31
MOLT-4 = tested on: MOLT-4
COLO 205 = tested on: COLO 205

Measured: GI50

CCC1CN2CCc3cc(OC)c(OC)cc3C2CC1CC1c2cc(OC)c(OC)cc2CCN1C(=O)C1CCCN1C(=O)OCc1ccccc1 (stereo not drawn)
inactive: 786-0 19.4 µM | ACHN 17.7 µM | CAKI-1 20.3 µM | HCT-116 13.1 µM | HL-60 13.1 µM | KM12 16.3 µM | Malme-3M 18.3 µM | NCI-H460 15.5 µM | SF-268 17.1 µM | SK-MEL-5 15.5 µM | SW-620 14.8 µM | U-251 15 µM | UACC-62 16.1 µM | UO-31 12.7 µM

CC(C)C1CC2C(=O)N(c3ccccc3)C(=O)C2c2[nH]c3ccccc3c21 (stereo not drawn)
inactive: 786-0 21.1 µM | ACHN 4.4 µM | CAKI-1 5.68 µM | HCT-116 4.13 µM | HL-60 7.45 µM | KM12 9.91 µM | MOLT-4 11.2 µM | Malme-3M 25.8 µM | NCI-H460 4.63 µM | SK-MEL-5 73.8 µM | SW-620 8.26 µM | U-251 12 µM | UACC-62 24.6 µM | UO-31 17.3 µM

COc1ccc(C(=O)C(c2ccc(OC)cc2)C2(O)C(=O)Nc3c2ccc(Cl)c3C)cc1 (stereo not drawn)
inactive: 786-0 > 100 µM | ACHN > 100 µM | COLO 205 > 100 µM | HCT-116 > 100 µM | HL-60 > 100 µM | KM12 > 100 µM | MOLT-4 > 100 µM | Malme-3M > 100 µM | NCI-H460 > 100 µM | SF-268 > 100 µM | SK-MEL-5 > 100 µM | SW-620 > 100 µM | U-251 > 100 µM | UACC-62 > 100 µM | UO-31 64.6 µM

O=C1c2ccccc2C2(O)c3cc4ccccc4cc3OC12O (stereo not drawn)
inactive: 786-0 > 100 µM | ACHN 97.3 µM | CAKI-1 62.7 µM | COLO 205 > 100 µM | HCT-116 69 µM | KM12 46.8 µM | MOLT-4 37.7 µM | Malme-3M 47.1 µM | NCI-H460 76.7 µM | SF-268 87.7 µM | SK-MEL-5 30.1 µM | SW-620 > 100 µM | U-251 54.7 µM | UACC-62 47.2 µM

CC(=O)NN1C(=O)C(Cc2ccccc2)c2ccccc21 (stereo not drawn)
inactive: 786-0 > 100 µM | ACHN > 100 µM | CAKI-1 > 100 µM | COLO 205 > 100 µM | HCT-116 > 100 µM | KM12 > 100 µM | MOLT-4 > 100 µM | Malme-3M > 100 µM | NCI-H460 > 100 µM | SF-268 > 100 µM | SK-MEL-5 > 100 µM | SW-620 > 100 µM | U-251 > 100 µM | UACC-62 > 100 µM | UO-31 > 100 µM

N#CC(/C(=N\NC(=O)c1ccncc1)C(=O)Nc1ccc([N+](=O)[O-])cc1[N+](=O)[O-])c1nc(-c2ccc(Br)cc2)cs1 (stereo not drawn)
inactive: 786-0 > 100 µM | ACHN > 100 µM | CAKI-1 > 100 µM | COLO 205 > 100 µM | HCT-116 > 100 µM | HL-60 > 100 µM | KM12 > 100 µM | MOLT-4 > 100 µM | Malme-3M > 100 µM | NCI-H460 > 100 µM | SF-268 > 100 µM | SK-MEL-5 > 100 µM | SW-620 > 100 µM | U-251 > 100 µM | UACC-62 > 100 µM | UO-31 > 100 µM

COS(=O)c1cc(Cl)cc(Cl)c1OC(=O)CSSCC(=O)Oc1c(Cl)cc(Cl)cc1S(=O)OC (stereo not drawn)
inactive: 786-0 22.4 µM | ACHN 21 µM | CAKI-1 26.6 µM | COLO 205 22.6 µM | HL-60 22.4 µM | KM12 14.8 µM | MOLT-4 17.1 µM | Malme-3M 15.2 µM | NCI-H460 8.69 µM | SF-268 7.26 µM | SK-MEL-5 17.4 µM | SW-620 28.4 µM | U-251 5.92 µM | UACC-62 6.97 µM | UO-31 13.2 µM

CC(C)(C)c1ccc2c(c1)S(=O)(=O)Nc1ccccc1NS(=O)(=O)c1cc(C(C)(C)C)ccc1OCCOCCOCCO2
inactive: 786-0 > 100 µM | ACHN > 100 µM | CAKI-1 97.9 µM | COLO 205 > 100 µM | HCT-116 > 100 µM | HL-60 > 100 µM | KM12 > 100 µM | MOLT-4 > 100 µM | Malme-3M 33.5 µM | NCI-H460 > 100 µM | SF-268 48.4 µM | SK-MEL-5 93.8 µM | SW-620 > 100 µM | U-251 88.5 µM | UACC-62 64.6 µM | UO-31 > 100 µM

CCSC(SCC)c1cc2c(cc1Br)OCO2
inactive: 786-0 33 µM | ACHN 40.3 µM | COLO 205 15.2 µM | HCT-116 18.7 µM | HL-60 10.1 µM | KM12 35.6 µM | MOLT-4 11.9 µM | NCI-H460 18.5 µM | SF-268 35 µM | SK-MEL-5 17.5 µM | SW-620 10.6 µM | U-251 17 µM | UACC-62 28.5 µM | UO-31 20.8 µM
